Values joined by “and” are separate entries in the source; they are usually repeats but may differ in a detail not shown here. Identical values can stand only once.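 Values below derive from 48-hour exposures of cells grown in 96-well plates, with endpoints linearly interpolated between the two concentrations bracketing the appropriate inhibition level. GI50 is the concentration that inhibits growth by half. TGI: total growth inhibition.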
Experiments:
Assay in all cases: DTP human tumour cell line panel, 48 h
T-47D breast = test system: T-47D breast
SN12C renal = test system: SN12C renal
OVCAR-5 ovarian = test system: OVCAR-5 ovarian
UACC-62 melanoma = test system: UACC-62 melanoma
786-0 renal = test system: 786-0 renal
TK-10 renal = test system: TK-10 renal
COLO 205 colon = test system: COLO 205 colon
U251 CNS = test system: U251 CNS
LOX IMVI melanoma = test system: LOX IMVI melanoma
CAKI-1 renal = test system: CAKI-1 renal

Structure (SMILES) | GI50 (T-47D breast) | TGI (T-47D breast) | GI50 (SN12C renal) | TGI (SN12C renal) | GI50 (OVCAR-5 ovarian) | TGI (OVCAR-5 ovarian) | GI50 (UACC-62 melanoma) | TGI (UACC-62 melanoma) | GI50 (786-0 renal) | TGI (786-0 renal) | GI50 (TK-10 renal) | TGI (TK-10 renal) | GI50 (COLO 205 colon) | TGI (COLO 205 colon) | GI50 (U251 CNS) | TGI (U251 CNS) | GI50 (LOX IMVI melanoma) | TGI (LOX IMVI melanoma) | GI50 (CAKI-1 renal) | TGI (CAKI-1 renal)
CC1=C[C@H]2c3c(c(O)c(O)c4oc5cc(O)cc(O)c5c(=O)c34)[C@H](c3cc(O)c(O)c4oc5cc(O)cc(O)c5c(=O)c34)[C@H]2C(C)(C)C1 | 2.78 µM | 26 µM | 1.84 µM and 2.11 µM | 6.88 µM and 8.24 µM | 2.71 µM and 2.1 µM | 10.5 µM and 6.58 µM | 1.18 µM and 1.31 µM | 2.59 µM and 3.07 µM | 2.43 µM and 2.16 µM | 6.66 µM and 6.33 µM | 2.12 µM and 3.06 µM | 10.5 µM and 14.8 µM | 2.65 µM | 7.33 µM | 0.789 µM and 1.08 µM | 3.26 µM and 17 µM | 1.12 µM and 0.87 µM | 2.36 µM and 2.19 µM | 3.45 µM and 2.18 µM | 11.1 µM and 6.53 µM
Cc1cc(C)cc(Nc2nccc(-c3c(-c4ccc(F)cc4)ncn3C3CCNCC3)n2)c1 | 1.42 µM | 3.79 µM | 1.21 µM | 2.59 µM | 1.67 µM | 3.98 µM | 1.55 µM | 2.95 µM | 1.31 µM | 2.79 µM | 0.717 µM | 2.95 µM | 1.41 µM | 3.21 µM | 1.65 µM | 3.25 µM | 1.54 µM | 2.88 µM | 1.24 µM | 2.72 µM
COc1ccc(S(=O)(=O)O)cc1NS(=O)(=O)c1ccc(C)cc1 |  | > 100 µM |  | > 100 µM |  | > 100 µM |  | > 100 µM |  | > 100 µM |  | > 100 µM |  | > 100 µM |  | > 100 µM |  | > 100 µM |  | > 100 µM
COc1cc(Nc2ncc3c(n2)-c2ccc(Cl)cc2C(c2c(F)cccc2OC)=NC3)ccc1C(=O)O | 12.1 µM | > 91.2 µM | 4.04 µM | > 90.4 µM | 7.54 µM | > 77.7 µM | 3.9 µM | 30.1 µM | 4.4 µM | > 83.6 µM | 4.61 µM | 24.4 µM | 0.0651 µM | 16.7 µM | 2.74 µM | 33.3 µM | 0.91 µM | 21.3 µM | 1.66 µM | 29.3 µM
COc1cc(C/C=C/c2ccccc2)c(OC)cc1O |  | 35.3 µM |  | 34.5 µM |  | 60.6 µM |  | 37.7 µM |  | 27.7 µM |  | 38.6 µM |  | 45.5 µM |  | 38.2 µM |  | 37.4 µM |  | 65.7 µM
CCC[CH2][Sn]1([CH2]CCC)[O]C(=O)C[S]1 |  |  | 1.91 µM | 5.09 µM | 2.09 µM | 5.27 µM | 1.35 µM | 2.89 µM | 1.49 µM | 2.83 µM | 1.55 µM | 2.92 µM | 1.75 µM | 4.11 µM | 1.33 µM | 2.65 µM | 1.46 µM | 3.09 µM | 0.759 µM | 3.47 µM
COc1cc(C(=O)/C=C/c2c(-c3ccc(F)cc3)nc3sccn23)cc(OC)c1OC | 2.3 µM | 14.3 µM | 2 µM | 15.8 µM | 1.85 µM | 4.79 µM | 2.28 µM | 13.9 µM | 2.54 µM | 6.49 µM | 3.6 µM | > 24.6 µM | 2.27 µM | 6.98 µM | 2.41 µM | 9.23 µM | 1.8 µM | 5.15 µM | 0.405 µM | > 30 µM

Reference: PubChem BioAssay (NCI)
